Assay results from patent publication US8993721B2, “Peptides for targeting apoptotic cells and uses thereof” (Kyungpook National University Industry-Academic Cooperation …, priority 2008, dated 2015).
Entries after “also recorded” stand apart in the source; their conditions may differ. Where no end group is shown, it is not given here.

Columns and labels:
[1] = tested on: etoposide-treated apoptotic A549 cells; experiment: FACS analysis of binding to apoptotic cells (Example 3-3); type: cell-based, human
Procedure: As another way of confirming the binding of the peptide of the present invention to apoptotic cells, apoptotic cells were treated with the peptide of the present invention, labeled with fluorescein, and the binding was confirmed through FACS analysis. […] The apoptotic cells or normal cells were reacted with ApoPep-1 (5 μM), ApoPep-2 (10 μM) or a control peptide at the same concentrations, labeled with fluorescein, at 4° C. for 1 hour. Further, the cells were reacted with fluorescein-labeled annexin V at room temperature for 15 minutes. After staining the cells with propodium iodide (PI) simultaneously, followed by washing with PBS, FACS analysis was performed using a FACS instrument (Becton Dickinson).

[2] = tested on: apoptotic cells in A549 tumor tissue xenotransplanted under the skin of nude mouse; experiment: Histological analysis of tumor targeting (Example 2); type: in vivo; details: fluorescein-labeled peptide, tail vein; for binding to cells stained by TUNEL (apoptotic cells) in tumor tissue: merge of peptide fluorescence and TUNEL
Procedure: (§1) All animal experiments were performed in accordance with the guideline of the Institutional Animal Care and Use Committee. For tumor xenotransplantation, human lung cancer cells (A549, 1×10^7 cells) suspended in RMPI-1640 medium was subcutaneously injected at the right upper or lower limb of a 6-week-old male BALB/c nude mouse (Hyochang Science). Then, 3 weeks were given for the tumor to grow to a size of 0.5 to 1 cm. The A549 cell line used in the experiment was cultured in RMPI-1640 medium containing 10% fetal bovine serum (FBS) in which antibiotics (penicillin and streptomycin) were included. Subculturing was performed every 3 or 4 days.
The peptides used in the present invention were fluorescein-attached form at the N-terminal. They were synthesized according to the standard Fmoc technique and then isolated through HPLC. The peptide synthesis was performed by an expertise company (Peptron).
The peptide of the present invention (ApoPep-1) or a control peptide (amino acid sequence: NSSSVDK), labeled with fluorescein, was injected into the tail vein of a mouse under isoflurane anesthesia, to a final concentration of 50 μM, and 2 hours was given for circulation.
For histological analysis, the mouse was anesthetized and the abdomen was cut open. After sequentially perfusing phosphate-buffered saline (PBS) and 4% paraformaldehyde through the heart, tumor tissues and organs were removed. Each tissue was cryosected and the peptide of the present invention was observed under a fluorescence microscope (Zeiss). Apoptosis in the tumor tissue was confirmed by TUNEL ([…] terminal deoxynucleotidyl transferase-mediated dUTP nick-end labeling) assay according to the instructions of the manufacturer (Chemicon). Fibrinogen staining was performed by immunohistochemistry using anti-fibrinogen antibody (Abcam) and secondary antibody labeled with Alexa 568, a red fluorescent reagent.

[3] = tested on: A549 tumor xenotransplanted in nude mice; experiment: In vivo fluorescence imaging of targeting of apoptotic cells in tumor (Example 4-1); parameters: species or system mouse
Procedure: Nude mice in which tumor was xenotransplanted using A549 cells were prepared as in Example <2-1>. The mice were grouped into a doxorubicin (Sigma) treated group (+Dox) and untreated group (−Dox). The treated group was treated with doxorubicin (10 mg/kg) 3 times, with an interval of 48 hours, a week prior to injection of the peptide. At the tail vein of each mouse, the peptide of the present invention or a control peptide, labeled with fluorescein, was injected at a final concentration of 50 μM, under isoflurane anesthesia. Following the injection, in vivo fluorescence images were obtained every hour, from 1 hour to 6 hours after the injection, using an Optix exPlore instrument (GE Healthcare). The images were standardized using the software provided with the instrument.
Further, when the tumor grew considerably (1 cm or larger in diameter), the peptide of the present invention was injected at the same concentration as above, without doxorubicin treatment, and in vivo fluorescence images were obtained at every given time using an IVIS fluorescence imaging system (Chemipro).

[4] = tested on: apoptotic cells in A549 tumor tissue xenotransplanted in nude mouse; experiment: Histological analysis of tumor targeting (Example 8); type: in vivo; details: fluorescein-labeled peptide, tail vein, 50 μM
Procedure: as §1, with “cells (A549, 1×10^6 cells) suspended” for “cells (A549, 1×10^7 cells) suspended”, “Then, 3 to 4 weeks were” for “Then, 3 weeks were”
The peptides used in the present invention were fluorescein-attached form at the N-terminal. They were synthesized according to the standard Fmoc technique and then isolated through HPLC. The peptide synthesis was performed by an expertise company (Peptron). […]
For histological analysis, the mouse was anesthetized and the abdomen was cut open. […] After treatment with a mounting solution containing the nuclear stain 4′,6-diamidino-2-phenylindole (DAPI) (Invitrogen), images of the cells were obtained under a fluorescence microscope (Zeiss).

[5] = tested on: aorta of arteriosclerotic Ldlr(−/−) mouse; experiment: Molecular imaging of arteriosclerosis (Example 5); type: in vivo
Procedure: An arteriosclerotic animal model was established by feeding mice, in which low-density lipoprotein (LDL) receptor was deficient (Ldlr(−/−)) genetically, with a high-cholesterol diet for 8 weeks. At the tail vein of the arteriosclerotic mouse and normal mouse, the peptide having an amino sequence represented by SEQ ID NO: 1 (ApoPep-1) or a control peptide, labeled with Cy7.5 NIR fluorescence, was injected at a final concentration of 50 μM, under isoflurane anesthesia. Two hours later, with the mouse anesthetized, in vivo images of the NIR fluorescence were obtained using an Optix exPlore instrument. Following the in vivo imaging, NIR fluorescence was measured […] after isolating the aorta.

[6] = etoposide 15 hours, peptide 5 μM, 4° C. 1 hour

Row | Substance | binding to apoptotic cells versus normal cells (FACS) ([1]; etoposide 20 hours, peptide 10 μM at 4° C. or 37° C. for 1 hour) | binding to cells stained by TUNEL (apoptotic cells) in tumor tissue ([2]; 50 μM, 2 hours) | time from which fluorescence from the tumor was detected ([3]; large tumor (1 cm or larger in diameter), no doxorubicin, IVIS) [h] | fluorescence signal from the tumor at 5 hours ([3]; large tumor (1 cm or larger), no doxorubicin) | binding to cells stained by TUNEL (apoptotic cells) in the tumor tissue ([4]; 2 hours) | peptide fluorescence observed in the tumor tissue ([4]; 2 hours circulation) | binding to normal cells (FACS) ([1]; A549 cells without etoposide, 4° C. 1 hour) | cells at the early stage of apoptosis bound to the peptide [1, 6] [%] | cells at the later stage of apoptosis bound to the peptide [1, 6] [%] | peptide fluorescence observed in the tumor tissue ([2]; 50 μM final, 2 hours circulation, cryosections) | binding to cells not stained by TUNEL (coagulation necrotic site, fibrinogen staining) ([2]; 50 μM, 2 hours) | time until which the tumor fluorescence signal was detected ([3]; doxorubicin treated group, fluorescein-labeled peptide 50 μM) [h] | time at which the fluorescence signal from the tumor tissue was most strongly detected ([3]; doxorubicin treated group, fluorescein-labeled peptide 50 μM, tail vein) [h] | fluorescence signal from the tumor, doxorubicin untreated group ([3]; −Dox, fluorescein-labeled peptide 50 μM) | NIR fluorescence imaged from the back, normal mouse ([5]; Cy7.5-labeled peptide 50 μM) | NIR fluorescence imaged from the back, arteriosclerotic mouse, compared with control peptide ([5]; Cy7.5-labeled peptide 50 μM, tail vein, two hours later) | NIR fluorescence after exposing the aorta by cutting the abdomen open, compared with control peptide ([5]; arteriosclerotic mouse) | intensity of the fluorescence relative to the control peptide ([5]; arteriosclerotic mouse, back image (FIG. 8B))
1 | CSVAPR (also: fluorescein or Cy7.5 label) [ApoPep-2, peptide CSVAPR screened for endothelial cells; used fluorescein- or Cy7.5-labeled] | bound better to the apoptotic cells than to the normal cells | binds to the apoptotic cells in the tumor tissue | 2 | strong fluorescence signal | target the tumor tissue and mainly bind to the tumor cells undergoing apoptosis; also recorded: binds to the cells stained by TUNEL | observed in the tumor tissue | – | – | – | – | – | – | – | – | – | – | – | –
2 | CQRPPR (also: fluorescein or Cy7.5 label) [ApoPep-1, peptide CQRPPR screened for macrophages; used fluorescein- or Cy7.5-labeled] | – | binds to the cells stained by TUNEL | – | – | – | – | almost nonexistent | 90.3 | 7.2 | observed in the tumor tissue | also binds to the cells not stained by TUNEL | 5 | 2 | weakly detected or almost nonexistent | almost nonexistent | stronger NIR fluorescence | much stronger | about two times that of the control peptide
